# Data from patent US8507506B2, “Theophylline derivative inhibits osteoporosis” (Kaohsiung Medical University, priority 2011, dated 2013).
# Marks after values point to notes of the source that are not given here.
# Experiments:
# [1] = test system: TRAF6 mRNA in RAW264.7 cells; experiment: RT-PCR, RANKL-induced mRNA expression of TRAF6; type: cell-based; settings: for RANKL-induced mRNA expression level of TRAF6: RAW264.7 cells, 24 hours, CTL 100%, mean ± SEM
# Source text: (§1) The culture medium was discarded. […] [table] f) Running • A.
# [2] = test system: TRAP mRNA in RAW264.7 cells; experiment: RT-PCR, RANKL-induced mRNA expression of TRAP; type: cell-based; settings: for RANKL-induced mRNA expression level of TRAP: RAW264.7 cells, 24 hours, CTL 100%, mean ± SEM
# Source text: as §1
# [3] = test system: NFATc1 mRNA in RAW264.7 cells; experiment: RT-PCR, RANKL-induced mRNA expression of NFATc1; type: cell-based; settings: for RANKL-induced mRNA expression level of NFATc1: RAW264.7 cells, 24 hours, CTL 100%, mean ± SEM
# Source text: as §1
# [4] = test system: MMP-9 mRNA in RAW264.7 cells; experiment: RT-PCR, RANKL-induced mRNA expression of MMP-9; type: cell-based; settings: for RANKL-induced mRNA expression level of MMP-9: RAW264.7 cells, 24 hours, CTL 100%, mean ± SEM
# Source text: as §1
# [5] = test system: Fra-1 mRNA in RAW264.7 cells; experiment: RT-PCR, RANKL-induced mRNA expression of Fra-1; type: cell-based; settings: for RANKL-induced mRNA expression level of Fra-1: RAW264.7 cells, 24 hours, CTL 100%, mean ± SEM
# Source text: as §1
# [6] = test system: Fra-2 mRNA in RAW264.7 cells; experiment: RT-PCR, RANKL-induced mRNA expression of Fra-2; type: cell-based; settings: for RANKL-induced mRNA expression level of Fra-2: RAW264.7 cells, 24 hours, CTL 100%, mean ± SEM
# Source text: as §1
# [7] = test system: TRAP activity of RAW264.7 cells induced by RANKL; experiment: TRAP activity assay; type: cell-based; settings: 10 ng/ml RANKL for 5 days, different concentrations, FIG. 4
# Description: 10^3 cells were plated per well in 96-well plates. […] When the reaction fluid became yellow, 0.1 M, 100 μl/well NaOH was added to terminate the reaction, and OD405 was examined in 37° C. b) 3 μl/well supernatant was examined by Bio-Red DC Protein Assay to detect the protein concentration.
# [8] = test system: TNF-α secretion by RAW264.7 cells; experiment: ELISA, RANKL-induced secretion of TNF-α; type: cell-based; settings: RAW264.7, ELISA, FIG. 6
# Description: Under RANKL stimulation, mononuclear RAW264.7 cells can secrete pro-inflammatory cytokines such as TNF-α, IL-1, IL-6, etc. ELISA is used to measure that KMUP-1 influences RANKL to induce the secretion of pro-inflammatory cytokines. […] 10^5 cells were plated per well in 24-well plates. […] After 24 hours reaction, the reaction fluid was centrifuged (13,000 rpm, 4° C., 20 minutes), and then the supernatant was tasted by ELISA kit (R&D system and eBioscience™) to detect the amount of TNF-α, IL-1β, IL-6, and IL-10. The experimental process is followed with the instructions of the kit.
# [9] = test system: MMP-9 enzyme activity of RAW264.7 cells; experiment: Gelatin zymography, enzyme activity of MMP-9 induced by RANKL; type: cell-based; settings: 10 μM, RANKL 24 hours, FIG. 21
# Description: KMUP-1 influences there major up-stream signal transduction pathways which are related to RANK/RANKL. Western blot is used to estimate the amount of matrix metalloproteinase (MMP)-2 and MMP-9 which are related to the dissolution of osteoclast-like cells, and the enzyme activity of MMP-2 and MMP-9 are estimated via Gelatin Zymography. […] After 24 hours reaction, the reaction fluid was centrifuged (13,000 rpm, 4° C., 20 minutes), and then the supernatant was stored in −80° C. • b) 10% gel preparation. 10 mg gelatin was added by 1 ml ddH2O and then was heated in water bath until the solution was clear. • c) Concentrations of the proteins were examined by Bio-Red DC Protein Assay. After knowing the concentrations, the proteins were diluted to specific concentrations by adding ddH2O. One forth volume of the diluted proteins of sample buffer was added into the diluted proteins. After shaking, the diluted proteins could be added into wells of the gel. Subsequently, 1× running buffer was added with the gel, and then the gel was run at 100 V for 10 minutes until the proteins were driven to the intersection between a loading gel and a running gel. Then, the voltage was swopped to 200 V for 60 minutes. • d) After electrophoresis, the loading gel was discarded, and the left gel was washed by TritonX-100 buffer for 30 minutes in room temperature twice. […]
# [10] = test system: MIA-induced knee arthritis in Wistar male rats; experiment: Monosodium iodoacetate (MIA) induced knee arthritis rat model; type: in vivo
# [11] = 10 ng/ml RANKL, summary of Table 1
structure (smiles),measurement,setting,value
"Cn1c(=O)c2c(ncn2CCN2CCN(c3ccccc3Cl)CC2)n(C)c1=O [KMUP-1, 7-[2-[4-(2-Chlorophenyl)piperazin-1-yl]ethyl] theophylline]",effect on mRNA expression of TRAF6 induced by RANKL (in words),[1]; [11],not obviously inhibits
same,RANKL-induced mRNA expression level of TRAF6,[1]; RANKL 10 ng/ml + KMUP-1 1 μM,100.2 ± 4.7%
same,RANKL-induced mRNA expression level of TRAF6,[1]; RANKL 10 ng/ml + KMUP-1 2.5 μM,123.8 ± 2.3%
same,RANKL-induced mRNA expression level of TRAF6,[1]; RANKL 10 ng/ml + KMUP-1 5 μM,125.9 ± 2.9% ^
same,RANKL-induced mRNA expression level of TRAF6,[1]; RANKL 10 ng/ml + KMUP-1 7.5 μM,128.4 ± 6.5% ^
same,RANKL-induced mRNA expression level of TRAF6,[1]; RANKL 10 ng/ml + KMUP-1 10 μM,127.2 ± 1.3% ^
same,effect on mRNA expression of TRAP induced by RANKL (in words),[2]; [11],inhibits the mRNA expression
same,RANKL-induced mRNA expression level of TRAP,[2]; RANKL 10 ng/ml + KMUP-1 1 μM,422.4 ± 24.8%
same,RANKL-induced mRNA expression level of TRAP,[2]; RANKL 10 ng/ml + KMUP-1 2.5 μM,427.7 ± 39.3%
same,RANKL-induced mRNA expression level of TRAP,[2]; RANKL 10 ng/ml + KMUP-1 5 μM,359.9 ± 20.7% ^b
same,RANKL-induced mRNA expression level of TRAP,[2]; RANKL 10 ng/ml + KMUP-1 7.5 μM,293.8 ± 30.1% ^b
same,RANKL-induced mRNA expression level of TRAP,[2]; RANKL 10 ng/ml + KMUP-1 10 μM,259.3 ± 18.3% ^b
same,effect on mRNA expression of NFATc1 induced by RANKL (in words),[3]; [11],inhibits the mRNA expression
same,RANKL-induced mRNA expression level of NFATc1,[3]; RANKL 10 ng/ml + KMUP-1 1 μM,256.9 ± 7.5%
same,RANKL-induced mRNA expression level of NFATc1,[3]; RANKL 10 ng/ml + KMUP-1 2.5 μM,184.7 ± 4.2% ^b
same,RANKL-induced mRNA expression level of NFATc1,[3]; RANKL 10 ng/ml + KMUP-1 5 μM,161.8 ± 2.9% ^b
same,RANKL-induced mRNA expression level of NFATc1,[3]; RANKL 10 ng/ml + KMUP-1 7.5 μM,132.9 ± 2.4% ^b
same,RANKL-induced mRNA expression level of NFATc1,[3]; RANKL 10 ng/ml + KMUP-1 10 μM,121.5 ± 4.5% ^b
same,effect on mRNA expression of MMP-9 induced by RANKL (in words),[4]; [11],inhibits the mRNA expression
same,RANKL-induced mRNA expression level of MMP-9,[4]; RANKL 10 ng/ml + KMUP-1 1 μM,1732.4 ± 168.9%
same,RANKL-induced mRNA expression level of MMP-9,[4]; RANKL 10 ng/ml + KMUP-1 2.5 μM,1619.9 ± 179.8%
same,RANKL-induced mRNA expression level of MMP-9,[4]; RANKL 10 ng/ml + KMUP-1 5 μM,1570.9 ± 159.3% ^b
same,RANKL-induced mRNA expression level of MMP-9,[4]; RANKL 10 ng/ml + KMUP-1 7.5 μM,1439.8 ± 188.8% ^b
same,RANKL-induced mRNA expression level of MMP-9,[4]; RANKL 10 ng/ml + KMUP-1 10 μM,1372.0 ± 175.6% ^b
same,effect on mRNA expression of Fra-1 induced by RANKL (in words),[5]; [11],inhibits the mRNA expression
same,RANKL-induced mRNA expression level of Fra-1,[5]; RANKL 10 ng/ml + KMUP-1 1 μM,244.1 ± 38.9% ^b
same,RANKL-induced mRNA expression level of Fra-1,[5]; RANKL 10 ng/ml + KMUP-1 2.5 μM,285.1 ± 44.8% ^b
same,RANKL-induced mRNA expression level of Fra-1,[5]; RANKL 10 ng/ml + KMUP-1 5 μM,310.1 ± 56.3% ^b
same,RANKL-induced mRNA expression level of Fra-1,[5]; RANKL 10 ng/ml + KMUP-1 7.5 μM,238.7 ± 49.9% ^b
same,RANKL-induced mRNA expression level of Fra-1,[5]; RANKL 10 ng/ml + KMUP-1 10 μM,265.2 ± 64.1% ^b
same,effect on mRNA expression of Fra-2 induced by RANKL (in words),[6]; [11],not obviously inhibits
same,RANKL-induced mRNA expression level of Fra-2,[6]; RANKL 10 ng/ml + KMUP-1 1 μM,428.3 ± 38.5%
same,RANKL-induced mRNA expression level of Fra-2,[6]; RANKL 10 ng/ml + KMUP-1 2.5 μM,490.5 ± 42.3%
same,RANKL-induced mRNA expression level of Fra-2,[6]; RANKL 10 ng/ml + KMUP-1 5 μM,488.2 ± 57.6% ^
same,RANKL-induced mRNA expression level of Fra-2,[6]; RANKL 10 ng/ml + KMUP-1 7.5 μM,474.5 ± 52.1% ^
same,RANKL-induced mRNA expression level of Fra-2,[6]; RANKL 10 ng/ml + KMUP-1 10 μM,496.6 ± 44.1% ^
same,TRAP activity induced by RANKL,[7],"can be inhibited, and the inhibiting effect is related to dose"
same,RANKL-induced secretion of TNF-α,[8],presents a dose dependent inhibition phenomenon
same,enzyme activity of MMP-9 induced by RANKL,[9],can reduce the enzyme activity of MMP-2 and MMP-9
same,holes and defects of cartilage tissues (H&E slices),[10]; oral 1 mg/kg,the holes and defects from the damages of the MIA still exist
same,inflammatory cell infiltrations (H&E slices),[10]; oral 1 mg/kg,there are still many inflammatory cell infiltrations
same,holes and defects of cartilage tissues (H&E slices),[10]; oral 2.5 mg/kg,become much better
same,inflammatory cell infiltrations (H&E slices),[10]; oral 2.5 mg/kg,the inflammatory cell infiltrations become less
same,damages of articular cartilage caused by MIA (gross appearance),"[10]; oral 2.5 mg/kg and 5 mg/kg, one week before and one week after MIA",can reduce the damages caused by the MIA
same,holes and defects of cartilage tissues (H&E slices),[10]; oral 5 mg/kg,close to the recovery condition of the sham group
same,inflammatory cell infiltrations (H&E slices),[10]; oral 5 mg/kg,there are still some inflammatory cell infiltrations
same,mast cell infiltrations (toluidine blue slices),"[10]; oral 1, 2.5, 5 mg/kg",the mast cell infiltrations present a trend of reducing according to the higher dose
